Data as given in ChEMBL document CHEMBL1201862, “PubChem BioAssay data set” (2004).
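Values below derive from 48-hour exposures of cells grown in 96-well plates, with endpoints linearly interpolated between the two concentrations bracketing the appropriate inhibition level. GI50: concentration for 50% inhibition of growth.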 Activity calls are given as the source filed them. Rule as the data show it: active = GI50 up to about 1.1 µM and inactive = higher. Where a SMILES comes first, the peptide text is derived from it.

Key:
Test in all cases: DTP human tumour cell line panel, 48 h
NCI-H23 = system: NCI-H23
RXF 393 = system: RXF 393
MDA-MB-435 = system: MDA-MB-435
TK-10 = system: TK-10
SNB-19 = system: SNB-19
HL-60 = system: HL-60
SNB-75 = system: SNB-75
MDA-MB-231 = system: MDA-MB-231
RPMI-8226 = system: RPMI-8226
SF-539 = system: SF-539
M14 = system: M14
HCC 2998 = system: HCC 2998
SW-620 = system: SW-620
CCRF-CEM = system: CCRF-CEM
NCI-H522 = system: NCI-H522
A549 = system: A549
MOLT-4 = system: MOLT-4
ACHN = system: ACHN
EKVX = system: EKVX
A498 = system: A498

Measured: GI50

COc1cc2c(c(OC)c1OC)C(=O)[C@@H]1[C@H]2N1C(N)=O
inactive: NCI-H23 69.2 µM | RXF 393 79.8 µM | MDA-MB-435 > 100 µM | TK-10 > 100 µM | SNB-19 > 100 µM | HL-60 > 100 µM | SNB-75 66.2 µM | MDA-MB-231 > 100 µM | RPMI-8226 > 100 µM | SF-539 > 100 µM | M14 > 100 µM | HCC 2998 68.4 µM | SW-620 > 100 µM | CCRF-CEM > 100 µM | NCI-H522 > 100 µM | A549 > 100 µM | MOLT-4 > 100 µM | ACHN 61.1 µM | EKVX > 100 µM

NCCCCC(N)C(=O)N1CCN(c2nc(N3CCCC3)c3nc(Cl)c(NCc4ccccc4)nc3n2)CC1 (configuration not stated)
inactive: NCI-H23 19.4 µM | RXF 393 15.9 µM | MDA-MB-435 23.2 µM | TK-10 19.2 µM | SNB-19 17.1 µM | HL-60 17 µM | SNB-75 16.6 µM | MDA-MB-231 18.1 µM | RPMI-8226 17.8 µM | SF-539 18.5 µM | M14 19.1 µM | HCC 2998 19.1 µM | SW-620 19.6 µM | CCRF-CEM 15.5 µM | NCI-H522 19.3 µM | A549 18.5 µM | MOLT-4 24.5 µM | ACHN 19.1 µM | EKVX 18.7 µM

O=C1COc2cccnc2N1CCCCO
inactive: RXF 393 > 100 µM | MDA-MB-435 > 100 µM | TK-10 > 100 µM | SNB-19 > 100 µM | HL-60 > 100 µM | SNB-75 > 100 µM | MDA-MB-231 > 100 µM | RPMI-8226 > 100 µM | SF-539 > 100 µM | SW-620 > 100 µM | CCRF-CEM > 100 µM | NCI-H522 > 100 µM | A498 > 100 µM | A549 > 100 µM | MOLT-4 > 100 µM | ACHN > 100 µM | EKVX > 100 µM

NC(=O)C1CCCN1C(=O)C(N)Cc1ccccc1 (stereo not drawn) (H-Phe-Pro-NH2; configuration not given here)
inactive: MDA-MB-435 > 100 µM | TK-10 > 100 µM | SNB-19 > 100 µM | HL-60 > 100 µM | MDA-MB-231 > 100 µM | RPMI-8226 > 100 µM | M14 > 100 µM | HCC 2998 > 100 µM | SW-620 > 100 µM | CCRF-CEM > 100 µM | NCI-H522 > 100 µM | A498 76.7 µM | A549 > 100 µM | MOLT-4 > 100 µM | ACHN > 100 µM | EKVX > 100 µM

OCCN(CCO)c1ccc2c(c1)Cc1ccccc1-2
inactive: NCI-H23 51.4 µM | MDA-MB-435 51.6 µM | TK-10 22.1 µM | SNB-19 > 100 µM | HL-60 41.7 µM | MDA-MB-231 34 µM | RPMI-8226 44.8 µM | SF-539 42.9 µM | M14 32.2 µM | HCC 2998 64.3 µM | SW-620 64.4 µM | CCRF-CEM > 100 µM | A498 35.1 µM | A549 37.8 µM | MOLT-4 45.8 µM | ACHN 32.1 µM | EKVX 43.1 µM

CC1(C)CCCCCCC2CC2CCCCCC(C)(C)C1=O (configuration not stated)
inactive: NCI-H23 69.2 µM | RXF 393 24.3 µM | MDA-MB-435 49.9 µM | TK-10 > 100 µM | SNB-19 > 100 µM | HL-60 16.6 µM | SNB-75 > 100 µM | MDA-MB-231 60.3 µM | RPMI-8226 24.4 µM | SF-539 > 100 µM | M14 > 100 µM | SW-620 > 100 µM | CCRF-CEM 19.1 µM | NCI-H522 51.9 µM | A498 > 100 µM | A549 45.7 µM | MOLT-4 33.5 µM | ACHN > 100 µM | EKVX 41.9 µM

CO/N=C1\CC(NC(=O)CNC(=O)OC(C)(C)C)c2ccsc21 (configuration not stated)
inactive: NCI-H23 > 100 µM | RXF 393 > 100 µM | MDA-MB-435 90.6 µM | TK-10 > 100 µM | HL-60 > 100 µM | SNB-75 53.1 µM | MDA-MB-231 > 100 µM | SF-539 > 100 µM | M14 > 100 µM | HCC 2998 > 100 µM | SW-620 > 100 µM | CCRF-CEM > 100 µM | A498 > 100 µM | A549 > 100 µM | MOLT-4 > 100 µM | EKVX > 100 µM

NN(CC(=O)O)CC(=O)O
inactive: NCI-H23 > 100 µM | MDA-MB-435 > 100 µM | TK-10 > 100 µM | SNB-19 > 100 µM | HL-60 > 100 µM | MDA-MB-231 > 100 µM | RPMI-8226 > 100 µM | SF-539 > 100 µM | M14 > 100 µM | HCC 2998 > 100 µM | SW-620 > 100 µM | CCRF-CEM > 100 µM | NCI-H522 > 100 µM | A498 > 100 µM | A549 > 100 µM | MOLT-4 > 100 µM | ACHN > 100 µM | EKVX > 100 µM

NCCN1C(=O)c2ccccc2C1(O)c1ccc(Cl)cc1 (configuration not stated)
inactive: NCI-H23 36.8 µM | RXF 393 17.3 µM | MDA-MB-435 15.3 µM | TK-10 17.9 µM | SNB-19 23.1 µM | HL-60 52.8 µM | SNB-75 21.9 µM | MDA-MB-231 15.5 µM | RPMI-8226 17.3 µM | SF-539 21.6 µM | M14 19 µM | SW-620 18.5 µM | CCRF-CEM 25.4 µM | NCI-H522 14.2 µM | A498 14.2 µM | A549 23.9 µM | MOLT-4 17.3 µM | ACHN 23 µM | EKVX 21.3 µM

COc1ccccc1N1C(=O)CSC1c1cccc(Oc2ccccc2)c1 (configuration not stated)
inactive: NCI-H23 20.8 µM | RXF 393 17.8 µM | MDA-MB-435 9.82 µM | TK-10 25.4 µM | SNB-19 23.8 µM | HL-60 20.9 µM | SNB-75 18.7 µM | MDA-MB-231 16.4 µM | SF-539 17.2 µM | M14 17.7 µM | SW-620 21.9 µM | CCRF-CEM 26.1 µM | NCI-H522 16.2 µM | A498 20.7 µM | A549 21.8 µM | MOLT-4 29.9 µM | ACHN 20.9 µM | EKVX 17.2 µM

COc1cc2c(cc1-c1coc3cc(O)ccc3c1=O)OCO2 [CUNEATIN]
inactive: NCI-H23 19.5 µM | MDA-MB-435 > 100 µM | TK-10 20.9 µM | SNB-19 19.5 µM | HL-60 > 100 µM | SNB-75 20.5 µM | MDA-MB-231 > 10 µM | RPMI-8226 26.5 µM | SF-539 23.4 µM | M14 71 µM | HCC 2998 39.7 µM | SW-620 32.8 µM | CCRF-CEM > 100 µM | NCI-H522 16.4 µM | A498 31 µM | A549 30.3 µM | MOLT-4 > 100 µM | ACHN 20.1 µM | EKVX 34.4 µM
